# Assay results taken from patent US20140235676A1, “RXR AGONIST COMPOUNDS AND METHODS” (Case Western Reserve University, priority 2011, published 2014).
# Legend:
# microglia = experiment: Inhibition of RXR mediated intracellular Aβ degradation by PPARγ or LXR inhibitors, microglia; format: cell-based; conditions: inhibitor pretreatment 1.5 hrs, Bexarotene 24 hours, 2 ug/mL soluble Aβ 18 hours
# Description: (§1) FIG. 14 illustrates graphs showing RXR mediated intracellular Aβ degradation is prevented by inhibiting PPARγ or LXR.
# (§2) To determine which heterodimer partners are involved in RXR activation driven Aβ intracellular degradation, we inhibited PPARγ and LXR by competitive inhibitors, TO and 22-s-Hydroxycholesterol, respectively. Aβ degradation mediated by either microglia (A) or astrocytes (B) is inhibited with either inhibitor to PPAR or LXR. Additionally, a co-treatment with both inhibitors reduces Aβ degradation further (FIG. 14).
# astrocytes = experiment: Inhibition of RXR mediated intracellular Aβ degradation by PPARγ or LXR inhibitors, astrocytes; format: cell-based; conditions: inhibitor pretreatment 1.5 hrs, Bexarotene 24 hours, 2 ug/mL soluble Aβ 18 hours
# Description: as §1, §2
# ApoE knock out microglia = experiment: Intracellular Aβ degradation in ApoE knock out microglia; format: cell-based, murine; conditions: without ApoE
# [1] = test system: ApoE knock out astrocytes; experiment: Intracellular Aβ degradation in ApoE knock out astrocytes; format: cell-based, murine; conditions: without ApoE
# [2] = extended periods in humans; cited from earlier work
# [3] = therapeutic doses, FDA alert May 21, 2007; cited from earlier work
# primary microglia = experiment: Intracellular Aβ degradation by primary microglia; format: cell-based, murine
# Description: FIG. 5 illustrates graphs showing RXR agonists stimulate Aβ degradation.
# Given the ability of RXR activation to drive LXR target gene expression, we predicted that agonist treatment should promote the proteolytic degradation of Aβ by microglia. […] Aβ uptake was unaffected by either drug treatment.
compound,measurement,setting,value
CC(C)CC[C@H](O)[C@@H](C)[C@H]1CC[C@H]2[C@@H]3CC=C4C[C@@H](O)CC[C@]4(C)[C@H]3CC[C@]12C [22-s-Hydroxycholesterol],Bexarotene driven intracellular Aβ degradation,microglia,inhibited
same,Bexarotene driven intracellular Aβ degradation,astrocytes,inhibited
C=C(c1ccc(C(=O)O)cc1)c1cc2c(cc1C)C(C)(C)CCC2(C)C [Bexarotene],intracellular Aβ degradation,ApoE knock out microglia,no effect
same,intracellular Aβ degradation,[1],no effect
same,clinical safety profile,[2],good safety profile
"CN(CCOc1ccc(CC2SC(=O)NC2=O)cc1)c1ccccn1 (stereo not drawn) [rosiglitazone, 5-[4-[2-(N-methyl-N-(2-pyridyl)amino]ethoxy]benzyl]thiazolidine-2,4-dione]",risk of death from all cardiovascular diseases,[3],even higher risk of death from all cardiovascular diseases
same,risk of heart attack,[3],significantly increased risk of heart attack
CC1=C(/C=C/C(C)=C\C=C\C(C)=C\C(=O)O)C(C)(C)CCC1 [9cisRA],Aβ uptake,primary microglia,unaffected
same,intracellular Aβ levels,primary microglia; drug 24 hours then 18 hours with 2 μg/mL soluble Aβ,dose-dependent reduction
